Assay results as given in patent publication US20170280720A1, “ARGININE […] INHIBITORS AND USES THEREOF” (EPIZYME, INC., priority 2014, published 2017).
pIC50: −log10 of the molar value.

The molecules below were run against T1, human PRMT1 (Homo sapiens, UniProt Q99873) (assay: PRMT1 biochemical assay (3H-SAM Flashplate, peptide substrate)). Settings: read-out: PRMT1_ IC50.
T1 construct: GST-tagged PRMT1; made in house; host or cells: High Five insect cells (baculovirus, pFastBacI)
How it was run: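 FLAG-tagged full-length human PRMT1 (0.5 nM, GST-tagged, insect-cell expressed) preincubated 30 min at RT with compound, then biotinylated histone H4 36-50 peptide (20 nM) plus 200 nM 3H-SAM and 1.5 uM SAM in Bicine pH 7.6, 2% DMSO. 3H-methylated peptide captured on streptavidin Flashplate; IC50 from 3/4-parameter fit.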

T1 sequence (Q99873 with tags, fused parts or gaps): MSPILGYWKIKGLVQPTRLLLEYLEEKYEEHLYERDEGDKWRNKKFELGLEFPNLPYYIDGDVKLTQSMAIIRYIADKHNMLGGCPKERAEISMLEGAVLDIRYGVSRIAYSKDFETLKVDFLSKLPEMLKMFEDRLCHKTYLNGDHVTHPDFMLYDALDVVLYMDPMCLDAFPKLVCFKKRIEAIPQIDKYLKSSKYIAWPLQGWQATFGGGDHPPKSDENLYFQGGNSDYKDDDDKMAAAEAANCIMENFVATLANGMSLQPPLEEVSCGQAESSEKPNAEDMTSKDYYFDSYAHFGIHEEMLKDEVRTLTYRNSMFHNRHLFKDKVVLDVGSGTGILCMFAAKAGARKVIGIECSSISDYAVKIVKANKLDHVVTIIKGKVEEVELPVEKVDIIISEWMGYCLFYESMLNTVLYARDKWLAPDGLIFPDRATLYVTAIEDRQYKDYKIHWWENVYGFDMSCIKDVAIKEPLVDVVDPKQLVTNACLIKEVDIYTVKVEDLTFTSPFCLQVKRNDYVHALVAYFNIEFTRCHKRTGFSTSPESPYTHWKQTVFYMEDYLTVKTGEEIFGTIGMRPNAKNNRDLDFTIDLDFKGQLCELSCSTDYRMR

| Structure (SMILES) | pIC50 |
| --- | --- |
| CNCCN(C)Cc1cccc(-c2cc(N(C)C)c3cnn(C(C)C)c3n2)c1 [Compound 103] | 6.29 |
| CNCCN(C)Cc1cccc(-c2cc(C(=O)NCC3CCOCC3)c3cnn(C(C)C)c3n2)c1 [Compound 105] | 6.26 |
| CC(C)n1ncc2c(C(=O)NCC3CCOCC3)cc(-c3cccc(CN(C)CCN)c3)nc21 [Compound 108] | 6.25 |
| CNCCN(C)Cc1cccc(-c2nc(N(C)C3CCOCC3)c3cnn(C4CC4)c3n2)c1 [Compound 109, N1-(3-(1-cyclopropyl-4-(methyl(tetrahydro-2H-pyran-4-yl)amino)-1H-pyrazolo[3,4-d]pyrimidin-6-yl)benzyl)-N1,N2-dimethylethane-1,2-diamine] | 6.24 |
| CNCCN(C)Cc1cccc(-c2cc(C(=O)NCCCCCC(=O)NCC3CCOCC3)c3cnn(C(C)C)c3n2)c1 [Compound 112] | 6.23 |
| CNCCN(C)Cc1cccc(-c2nc(NC3CC3)c3cnn(C4CC4)c3n2)c1 [Compound 114] | 6.21 |
| CNCCN(C)Cc1cccc(-c2cc(C(=O)NCCCCCC(=O)NCc3ccn(C)n3)c3cnn(C(C)C)c3n2)c1 [Compound 117] | 6.19 |
| CNCCN(C)Cc1cccc(-c2cc(C(=O)NCCCCC(=O)NCC3CCOCC3)c3cnn(C(C)C)c3n2)c1 [Compound 118] | 6.18 |
| CN(CCN)Cc1cccc(-c2nc(N(C)C3CCOCC3)c3cnn(C4CC4)c3n2)c1 [Compound 119] | 6.15 |
| CNCCN(C)Cc1cccc(-c2cc(NC)c3cnn(C(C)C)c3n2)c1 [Compound 121] | 6.14 |
| CNCCN(C)Cc1cccc(-c2cc(C(=O)NCCCCC(=O)NCc3ccn(C)n3)c3cnn(C(C)C)c3n2)c1 [Compound 122] | 6.14 |
| CNCCN(C)Cc1cccc(-c2cc(NC(=O)N(C)C)c3cnn(C(C)C)c3n2)c1 [Compound 123] | 6.12 |

The next lines start with the values.

| pIC50 | Structure (SMILES) |
| --- | --- |
| 6.31 | CC(C)n1ncc2c(NC3CCOCC3)cc(-c3cccc(CN(C)CCN)c3)nc21 [Compound 101] |
| 6.31 | CNCCN(C)Cc1cccc(-c2cc(OC3CCOC3)c3cnn(C(C)C)c3n2)c1 (stereo not drawn) [Compound 102] |
| 6.28 | NCCNCc1ccc(-c2ccc3ncn(Cc4ccc(C(=O)N5CCCC5)cc4)c3c2)cc1 [Compound 104] |
| 6.25 | Cc1cccc(-n2cnc3ccc(-c4ccc(CNCCN)cc4)cc32)c1 [Compound 106] |
| 6.25 | CC(C)n1ncc2c(NS(=O)(=O)N(C)C)cc(-c3cccc(CN(C)CCN)c3)nc21 [Compound 107] |
| 6.23 | COc1cccc(-n2cnc3ccc(-c4ccc(CNCCN)cc4)cc32)c1 [Compound 110] |
| 6.23 | CCS(=O)(=O)Nc1cc(-c2cccc(CN(C)CCN)c2)nc2c1cnn2C(C)C [Compound 111] |
| 6.20 | COc1ccccc1-c1nc2ccc(-c3ccc(CNCCN)cc3)cc2[nH]1 [Compound 115] |
| 6.19 | CC(C)n1ncc2c(NC(=O)N(C)C)cc(-c3cccc(CN(C)CCN)c3)nc21 [Compound 116] |
| 6.14 | CNCCN(C)Cc1cccc(-c2cc(C(=O)NCc3cc(C)nn3C)c3cnn(C(C)C)c3n2)c1 [Compound 120] |
| 6.11 | CNCCN(C)Cc1cccc(-c2cc(OC)c3cnn(C(C)C)c3n2)c1 [Compound 124] |
| 6.11 | CC(C)n1ncc2c(C(=O)N[C@@H](C)c3ccccc3)cc(-c3cccc(CNCCN)c3)cc21 [Compound 125] |
